Values quoted from earlier work as cited in patent US10709666B2, “Carrier particles for dry powder formulations for inhalation” (CHIESI FARMACEUTICI S.P.A., priority 2017, dated 2020).

Details: room temperature

| SMILES | saturated concentration in water |
| --- | --- |
| O.OC[C@H]1O[C@@H](O[C@H]2[C@H](O)[C@@H](O)[C@@H](O)O[C@@H]2CO)[C@H](O)[C@@H](O)[C@H]1O [alpha-lactose monohydrate] | 18-19 % w/v |
| OC[C@@H](O)[C@@H](O)[C@H](O)[C@H](O)CO [mannitol] | 18-21 % w/v |
